Results taken from patent publication US20240033208A1, “BOTANICAL EXTRACT BLEND FOR USE IN SKIN CARE” (Shaklee Corporation, priority 2022, published 2024).
One block for each compound: values may come before it.

What was measured:
[1] = test system: MatTek EpiDerm tissue (UVB induced CPD formation in genomic DNA); assay: Cyclobutane pyrimidine dimer (CPD) assay, UVB, ELISA; assay type: cell-based, human; conditions: for CPD in genomic DNA: pretreated overnight before UVB
Method: The testing system used for this assay was the MatTek EpiDerm, a skin model which consists of normal human-derived epidermal keratinocytes cultured to form a multilayered, highly differentiated model of the human epidermis. For this study, tissues were treated topically either overnight with the test materials prior to UVB exposure (pretreat group to assess prevention). Following treatment, DNA was extracted from the EpiDerm tissues and assayed for CPD content using an ELISA based method.

[2] = target: T1, human recombinant MMP-1 (Homo sapiens, UniProt P03956); assay: Collagenase (MMP-1) inhibition (thiopeptolide/DTNB, 412 nm); assay type: biochemical
T1 sequence (P03956 100-469): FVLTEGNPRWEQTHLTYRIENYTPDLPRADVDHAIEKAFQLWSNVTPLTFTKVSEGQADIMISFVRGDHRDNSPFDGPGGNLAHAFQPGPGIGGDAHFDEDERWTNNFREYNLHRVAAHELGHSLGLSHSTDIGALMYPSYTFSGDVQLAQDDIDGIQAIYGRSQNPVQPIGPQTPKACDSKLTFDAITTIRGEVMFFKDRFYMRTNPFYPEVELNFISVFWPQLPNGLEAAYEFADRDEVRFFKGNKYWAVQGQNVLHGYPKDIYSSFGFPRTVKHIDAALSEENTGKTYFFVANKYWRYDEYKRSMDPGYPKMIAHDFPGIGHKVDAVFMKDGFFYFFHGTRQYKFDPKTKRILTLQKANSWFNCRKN
From the text: Matrix Metalloproteinase-1 (MMP-1) is an extracellular protease with an approximate molecular weight of 52-56 kD in its latent form. Upon cleavage of the proenzyme, the 22-46 kD MMP-1 becomes an active enzyme and can degrade many substrates including collagen, gelatin, and entactin. In human skin, increased MMP-1 activity can be induced via some disease states, exposure to UV irradiation or as part of the natural aging process. This can result in an imbalanced state where the degradation of collagen by MMP-1 exceeds its rate of replacement. Therefore, materials that inhibit MMP-1 activity can be beneficial for skin care. To screen inhibitors of MMP-1, human recombinant MMP-1 was incubated in the presence of a thiopeptolide substrate, potential inhibitors, and 5,5′-dithiobis(2-nitrobenzoic acid) (DTNB). When the thiopeptolide substrate is broken down by MMP-1, it releases a sulfhydryl group that can react with DTNB and form 2-nitro-5-thiobenzoic acid, which can be detected spectrophotometrically at 412 nm. Thus, in the presence of inhibitors, absorbance will be decrease relative to the non-inhibited enzyme.

[3] = test system: elastase; assay: Elastase inhibition (fibroblast lysate, STANA substrate, 405 nm); assay type: biochemical, human
Method: Human dermal fibroblasts were cultured and used as a source of the elastase enzyme. Elastase was partially purified from fibroblasts by lysing the cells in an elastase buffer and retaining the soluble portion of the lysate. Portions of this fibroblast lysate were then be incubated with test materials and a synthetic elastase substrate, Suc-([…])-p-Nitroaniline (STANA). Elastase acts upon the substrate, releasing p-nitroaniline, which can be detected with a spectrophotometer by measuring absorbance at a wavelength of 405 nm. Inhibition of elastase enzyme is indicated by a decrease in the amount of released p-nitroaniline as compared to the uninhibited enzyme.

[4] = test system: AGE formation in collagen; assay: Collagen AGE prevention assay; assay type: biochemical
Method: AGE Prevention—50 μl of ice-cold collagen solution was added to the wells of a 96 well plate. The plate was incubated overnight at 37° C. to allow the collagen solution to gel. On the following day, 40 μl of either test material (prepared in assay buffer), aminoguanidine (positive control), or assay buffer (negative control) was added to the plate. After the materials were added, 10 μl of a 500 mM glyceraldehyde solution was added to all of the wells. The plate was then read using a fluorometer (355 nm excitation and 405 nm emission) and then incubated for 24 hours in a humidified incubator at 37C. On the following day the plate was read again. AGE formation was determined by subtracting the […] for each sample.

[5] = test system: preexisting AGEs in collagen; assay: Collagen AGE reduction assay; assay type: biochemical
Method: AGE Reduction—50 μl of ice-cold collagen solution was added to the wells of a 96 well plate. The plate was then incubated overnight at 37C to allow the collagen solution to gel. On the following day, 10 μl of a 500 mM glyceraldehyde solution was added to all of the wells and the plate was incubated for 24 hours in a humidified incubator at 37° C. On the following day 40 μl of either test material (prepared in assay buffer), aminoguanidine (positive control), or assay buffer (negative control) was added to the plate. The plate was then read using a fluorometer (355 nm excitation and 405 nm emission) and then incubated again for 24 hours in a humidified incubator at 37C. On the following day the plate was read again. AGE formation was determined by subtracting the initial fluorescent measurement from the final fluorescent measurement for each sample.

[6] = ingredients tested individually at the concentrations used in the blends

Compound: Cc1c(C)c2c(c(C)c1O)CCC(C)(C(=O)O)O2 (stereo not drawn) [Trolox, reference compound]
- % Prevention of genomic DNA CPD formation ([1]; 150 ug/ml): 67%
- CPD in genomic DNA ([1]; 150 ug/ml): 1.439 ± 0.088 ng/mL

Compound: COc1ccc(S(=O)(=O)N(CC(=O)NO)CC(C)C)cc1 [NNGH, reference compound]
- Percent Inhibition (collagenase) ([2]; 2 uM): 94 ± 3%

- Percent Inhibition (elastase) ([3]; 0.2 mM): 97 ± 0%
Compound: CC(C)C[C@H](NP(=O)(O)O[C@@H]1O[C@@H](C)[C@H](O)[C@@H](O)[C@H]1O)C(=O)N[C@@H](Cc1c[nH]c2ccccc12)C(=O)O [Phosphoramidon, reference compound]

Compound: N=C(N)NN [Aminoguanidine, aminoguanidine, reference compound]
- Percent AGE Prevention ([4]; 8 mM): 56.8 ± 0.5%
- Percent AGE Reduction ([5]; 8 mM): 33.4 ± 3.3%

- Percent Inhibition (collagenase) ([2]; 0.075%): 4 ± 0%
- Percent Inhibition (collagenase) ([2]; 0.08%): 7 ± 1%
- Percent Inhibition (elastase) ([3]; 0.075%): 30 ± 3%
- Percent Inhibition (elastase) ([3]; 0.08%): 33 ± 2%
Compound: Oc1ccc(/C=C/c2cc(O)cc(O)c2)cc1 [Resveratrol, 5-[(E)-2-(4-Hydroxyphenyl)ethen-1-yl]benzene-1,3-diol]
- % Prevention of genomic DNA CPD formation ([1]; 0.0375%): 63%
- % Prevention of genomic DNA CPD formation ([1]; 0.075%): 75%
- CPD in genomic DNA ([1]; 0.0375%): 1.601 ± 0.180 ng/mL
- CPD in genomic DNA ([1]; 0.075%): 1.115 ± 0.085 ng/mL
- Percent AGE Prevention ([4]; 0.0375%): 20.8 ± 2.4%
- Percent AGE Prevention ([4]; 0.075%): 38.4 ± 7.1%
- preventing AGE formation (in words) [4, 6]: significantly effective
- Percent AGE Reduction ([5]; 0.0375%): 28.2 ± 1.2%
- Percent AGE Reduction ([5]; 0.075%): 32.8 ± 2.8%
- reducing existing AGEs (in words) [5, 6]: significantly effective
- elastase inhibition (in words) ([3]; summary of Table 10): effective at inhibiting elastase activity on its own
